Reference: PubChem BioAssay AID330 (DTP/NCI, 2004)
“And” between values parts separate entries of the source, which are not always exact repeats. Equal values may be shown once. Toxic doses and inconclusive results are not listed. The calls were made as follows: active = survival T/C of 150% or more; inactive = T/C below 125% in these data.

Tested on: P388 leukemia ip, CD2F1 mice, survival T/C
Experiment: NCI In Vivo Anticancer Drug Screen. Data for tumor model P388 Leukemia (intraperitoneal) in CD2F1 (CDF1) mice
Details: endpoint: median survival time, higher = longer survival
Procedure, shortened: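 Mice carrying the transplanted tumor received test compound or vehicle. Survival was recorded in each group, and the value is the treated-group measurement divided by that of the vehicle-treated control group.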

[1] = dose: 50.0 mg/kg/injection, schedule: Q01DX005 (ip), vehicle: saline with Tween-80
[2] = dose: 12.5 mg/kg/injection, schedule: Q01DX009 (ip), vehicle: saline with Tween-80
[3] = dose: 12.5 mg/kg/injection, schedule: Q01DX009 (ip), vehicle: saline
[4] = dose: 50.0 mg/kg/injection, schedule: Q01DX009 (ip), vehicle: saline

Measured: T/C

O=C1C=CC(=O)C2=C1CCOC2c1ccccc1 (centres undefined)
inactive: [1] 91 % of control

CC1/C(=N/O)C(=O)c2ccccc21 (centres undefined)
inactive: [2] 100 % of control | dose: 25.0 mg/kg/injection, schedule: Q01DX009 (ip), vehicle: saline with Tween-80 95 % of control | dose: 50.0 mg/kg/injection, schedule: Q01DX009 (ip), vehicle: saline with Tween-80 100 % of control

O=C(COc1cccc2oc3ccccc3c(=O)c12)N/N=C/c1ccc(N(CCCl)CCCl)cc1
inactive: dose: 60.0 mg/kg/injection, schedule: Q01DX005 (ip), vehicle: Klucel (hydroxypropylcellulose) (HPC) 97 % of control | dose: 120.0 mg/kg/injection, schedule: Q01DX005 (ip), vehicle: Klucel (hydroxypropylcellulose) (HPC) 96 % of control | dose: 240.0 mg/kg/injection, schedule: Q01DX005 (ip), vehicle: Klucel (hydroxypropylcellulose) (HPC) 95 % of control

Cc1nn(-c2ccc(S(=O)(=O)[O-])cc2)c([O-])c1N=[N+](C)c1ccc(-c2ccc(N=Nc3ccc4c(S(=O)(=O)[O-])cc(S(=O)(=O)[O-])c(N)c4c3[O-])c([O-])c2)cc1[O-].[Cu+2].[Cu+2].[Na+]
inactive: dose: 3.12 mg/kg/injection, schedule: Q01DX009 (ip), vehicle: saline with Tween-80 96 % of control | dose: 6.25 mg/kg/injection, schedule: Q01DX009 (ip), vehicle: saline with Tween-80 96 % of control | [2] 99 % of control and 86 % of control | [3] 97 % of control | [4] 96 % of control

O=C(O)C1(C(=O)O)CCC1.[NH2-].[NH2-].[Pt+2]
active: dose: 6.25 mg/kg/injection, schedule: Q01DX005 (ip), vehicle: water 152 % of control | dose: 6.25 mg/kg/injection, schedule: Q01DX009 (ip), vehicle: water 167 % of control | dose: 12.5 mg/kg/injection, schedule: Q01DX005 (ip), vehicle: water 166 % of control | dose: 12.5 mg/kg/injection, schedule: Q01DX009 (ip), vehicle: water 189 % of control | dose: 25.0 mg/kg/injection, schedule: Q01DX005 (ip), vehicle: water 194 % of control | dose: 25.0 mg/kg/injection, schedule: Q01DX009 (ip), vehicle: saline 152 % of control | dose: 25.0 mg/kg/injection, schedule: Q04DX003 (ip), vehicle: water 186 % of control | dose: 50.0 mg/kg/injection, schedule: Q01DX001 (ip), vehicle: water 161 % of control | dose: 50.0 mg/kg/injection, schedule: Q04DX003 (ip), vehicle: water 217 % of control | dose: 100.0 mg/kg/injection, schedule: Q01DX001 (ip), vehicle: water 164 % of control | dose: 100.0 mg/kg/injection, schedule: Q04DX003 (ip), vehicle: saline 170 % of control
inactive: dose: 12.5 mg/kg/injection, schedule: Q01DX001 (im), vehicle: suspension in saline 105 % of control | dose: 12.5 mg/kg/injection, schedule: Q01DX001 (ip), vehicle: suspension in saline 117 % of control | dose: 12.5 mg/kg/injection, schedule: Q01DX001 (iv), vehicle: suspension in saline 108 % of control | dose: 12.5 mg/kg/injection, schedule: Q01DX001 (sc), vehicle: suspension in saline 103 % of control | [3] 113 % of control | dose: 12.5 mg/kg/injection, schedule: Q04DX003 (iv), vehicle: saline 110 % of control | dose: 25.0 mg/kg/injection, schedule: Q01DX001 (im), vehicle: suspension in saline 117 % of control | dose: 25.0 mg/kg/injection, schedule: Q01DX001 (ip), vehicle: saline 107 % of control | dose: 25.0 mg/kg/injection, schedule: Q01DX001 (ip), vehicle: suspension in saline 121 % of control | dose: 25.0 mg/kg/injection, schedule: Q01DX001 (iv), vehicle: suspension in saline 106 % of control | dose: 25.0 mg/kg/injection, schedule: Q01DX001 (oral), vehicle: suspension in saline 100 % of control | dose: 25.0 mg/kg/injection, schedule: Q01DX001 (sc), vehicle: suspension in saline 107 % of control | dose: 25.0 mg/kg/injection, schedule: Q01DX005 (iv), vehicle: water 90 % of control | dose: 25.0 mg/kg/injection, schedule: Q01DX009 (ip), vehicle: water 112 % of control | dose: 25.0 mg/kg/injection, schedule: Q04DX003 (ip), vehicle: saline 114 % of control | dose: 25.0 mg/kg/injection, schedule: Q04DX003 (iv), vehicle: saline 113 % of control | dose: 50.0 mg/kg/injection, schedule: Q01DX001 (im), vehicle: suspension in saline 110 % of control | dose: 50.0 mg/kg/injection, schedule: Q01DX001 (ip), vehicle: suspension in saline 124 % of control | dose: 50.0 mg/kg/injection, schedule: Q01DX001 (iv), vehicle: suspension in saline 110 % of control | dose: 50.0 mg/kg/injection, schedule: Q01DX001 (oral), vehicle: suspension in saline 103 % of control | dose: 50.0 mg/kg/injection, schedule: Q01DX001 (sc), vehicle: suspension in saline 110 % of control | [4] 100 % of control | dose: 50.0 mg/kg/injection, schedule: Q04DX003 (iv), vehicle: saline 117 % of control | dose: 50.0 mg/kg/injection, schedule: Q04DX003 (oral), vehicle: saline 116 % of control | dose: 100.0 mg/kg/injection, schedule: Q01DX001 (im), vehicle: suspension in saline 111 % of control | dose: 100.0 mg/kg/injection, schedule: Q01DX001 (iv), vehicle: saline 105 % of control | dose: 100.0 mg/kg/injection, schedule: Q01DX001 (iv), vehicle: suspension in saline 115 % of control | dose: 100.0 mg/kg/injection, schedule: Q01DX001 (iv), vehicle: water 93 % of control | dose: 100.0 mg/kg/injection, schedule: Q01DX001 (sc), vehicle: suspension in saline 120 % of control | dose: 100.0 mg/kg/injection, schedule: Q04DX003 (ip), vehicle: water 96 % of control | dose: 100.0 mg/kg/injection, schedule: Q04DX003 (iv), vehicle: saline 123 % of control | dose: 100.0 mg/kg/injection, schedule: Q04DX003 (oral), vehicle: saline 114 % of control | dose: 200.0 mg/kg/injection, schedule: Q01DX001 (im), vehicle: suspension in saline 105 % of control | dose: 200.0 mg/kg/injection, schedule: Q01DX001 (iv), vehicle: suspension in saline 100 % of control | dose: 200.0 mg/kg/injection, schedule: Q01DX001 (oral), vehicle: saline 104 % of control | dose: 200.0 mg/kg/injection, schedule: Q01DX001 (oral), vehicle: suspension in saline 110 % of control | dose: 200.0 mg/kg/injection, schedule: Q01DX001 (sc), vehicle: suspension in saline 107 % of control | dose: 200.0 mg/kg/injection, schedule: Q04DX003 (oral), vehicle: saline 117 % of control | dose: 400.0 mg/kg/injection, schedule: Q01DX001 (iv), vehicle: saline 91 % of control | dose: 400.0 mg/kg/injection, schedule: Q01DX001 (oral), vehicle: saline 100 % of control | dose: 400.0 mg/kg/injection, schedule: Q01DX001 (oral), vehicle: suspension in saline 101 % of control | dose: 400.0 mg/kg/injection, schedule: Q04DX003 (oral), vehicle: saline 122 % of control

O=C(OC1CCC2(CC1)N=NC1(CCC(OC(=O)c3ccccc3)CC1)S2)c1ccccc1 (centres undefined)
inactive: [4] 98 % of control | dose: 100.0 mg/kg/injection, schedule: Q01DX009 (ip), vehicle: saline 97 % of control | dose: 200.0 mg/kg/injection, schedule: Q01DX009 (ip), vehicle: saline 101 % of control

CCC/C=C(\CC)COC(=O)Nc1ccccc1
inactive: [1] 86 % of control | dose: 100.0 mg/kg/injection, schedule: Q01DX005 (ip), vehicle: saline with Tween-80 100 % of control

COC(=O)C1(C)Cc2cc(OC(C)=O)c(OC(C)=O)cc2N1 (centres undefined)
inactive: dose: 25.0 mg/kg/injection, schedule: Q01DX001 (ip), vehicle: Klucel (hydroxypropylcellulose) (HPC) 109 % of control | dose: 50.0 mg/kg/injection, schedule: Q01DX001 (ip), vehicle: Klucel (hydroxypropylcellulose) (HPC) 100 % of control | dose: 100.0 mg/kg/injection, schedule: Q01DX001 (ip), vehicle: Klucel (hydroxypropylcellulose) (HPC) 109 % of control | dose: 200.0 mg/kg/injection, schedule: Q01DX001 (ip), vehicle: Klucel (hydroxypropylcellulose) (HPC) 114 % of control

COc1cc(C[C@@H]2COC(=O)[C@]2(O)Cc2ccc(O)c(OC)c2)ccc1O
active: dose: 16.0 mg/kg/injection, schedule: Q01DX009 (ip), vehicle: saline + alcohol 154 % of control
inactive: dose: 1.25 mg/kg/injection, schedule: Q01DX009 (ip), vehicle: alcohol 100 % of control | dose: 2.5 mg/kg/injection, schedule: Q01DX009 (ip), vehicle: alcohol 113 % of control | dose: 5.0 mg/kg/injection, schedule: Q01DX009 (ip), vehicle: alcohol 104 % of control | dose: 8.0 mg/kg/injection, schedule: Q01DX009 (ip), vehicle: saline + alcohol 124 % of control
